PMC10739630, “Galidesivir Triphosphate Promotes Stalling of Dengue-2 Virus Polymerase Immediately Prior to Incorporation” (ACS Infectious Diseases, 2023)

Columns and labels:
Type in all cases: biochemical
ZIKV NS5 = ZIKV NS5 (Zika virus, UniProt Q32ZE1); experiment: SYTO […] fluorescence RdRp assay, A2-primed, poly(U) template; settings: read-out: IC50 ^a (μM, mean ± std. dev.)
DENV2 NS5 [1] = target: T1, DENV2 NS5 (Dengue virus 2 Thailand/16681/84, UniProt P29990); experiment: as above; settings: read-out: IC50 ^a (μM, mean ± std. dev.)
T1 sequence (P29990 2492-3391 limits assumed): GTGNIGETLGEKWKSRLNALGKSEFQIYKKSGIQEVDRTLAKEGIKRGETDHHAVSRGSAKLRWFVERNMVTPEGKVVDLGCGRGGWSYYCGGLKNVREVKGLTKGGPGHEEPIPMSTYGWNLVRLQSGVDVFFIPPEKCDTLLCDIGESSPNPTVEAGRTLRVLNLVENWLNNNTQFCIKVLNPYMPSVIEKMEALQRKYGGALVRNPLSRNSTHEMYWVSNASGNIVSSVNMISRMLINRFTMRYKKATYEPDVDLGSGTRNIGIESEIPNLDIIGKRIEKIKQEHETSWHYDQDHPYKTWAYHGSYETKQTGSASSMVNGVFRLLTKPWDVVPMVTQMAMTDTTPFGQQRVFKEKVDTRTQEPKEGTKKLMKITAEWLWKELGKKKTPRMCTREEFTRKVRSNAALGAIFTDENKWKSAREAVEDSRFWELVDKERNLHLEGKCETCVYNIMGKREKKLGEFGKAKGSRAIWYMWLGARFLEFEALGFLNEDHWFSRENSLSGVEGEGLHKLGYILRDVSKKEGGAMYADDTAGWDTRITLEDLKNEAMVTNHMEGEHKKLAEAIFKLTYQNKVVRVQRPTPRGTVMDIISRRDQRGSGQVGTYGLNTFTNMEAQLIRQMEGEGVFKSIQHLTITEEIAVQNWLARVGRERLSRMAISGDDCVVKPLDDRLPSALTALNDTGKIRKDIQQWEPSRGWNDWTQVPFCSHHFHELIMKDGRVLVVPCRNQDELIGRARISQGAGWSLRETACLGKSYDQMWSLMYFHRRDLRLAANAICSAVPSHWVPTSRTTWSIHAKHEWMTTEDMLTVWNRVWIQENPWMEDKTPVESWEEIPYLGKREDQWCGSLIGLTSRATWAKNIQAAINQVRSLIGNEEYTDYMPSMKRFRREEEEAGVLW

DENV2 NS5 [2] = target: T1, DENV2 NS5; settings: read-out: KM^app for ATP

ZIKV NS5, sequence (Q32ZE1 2517-3419): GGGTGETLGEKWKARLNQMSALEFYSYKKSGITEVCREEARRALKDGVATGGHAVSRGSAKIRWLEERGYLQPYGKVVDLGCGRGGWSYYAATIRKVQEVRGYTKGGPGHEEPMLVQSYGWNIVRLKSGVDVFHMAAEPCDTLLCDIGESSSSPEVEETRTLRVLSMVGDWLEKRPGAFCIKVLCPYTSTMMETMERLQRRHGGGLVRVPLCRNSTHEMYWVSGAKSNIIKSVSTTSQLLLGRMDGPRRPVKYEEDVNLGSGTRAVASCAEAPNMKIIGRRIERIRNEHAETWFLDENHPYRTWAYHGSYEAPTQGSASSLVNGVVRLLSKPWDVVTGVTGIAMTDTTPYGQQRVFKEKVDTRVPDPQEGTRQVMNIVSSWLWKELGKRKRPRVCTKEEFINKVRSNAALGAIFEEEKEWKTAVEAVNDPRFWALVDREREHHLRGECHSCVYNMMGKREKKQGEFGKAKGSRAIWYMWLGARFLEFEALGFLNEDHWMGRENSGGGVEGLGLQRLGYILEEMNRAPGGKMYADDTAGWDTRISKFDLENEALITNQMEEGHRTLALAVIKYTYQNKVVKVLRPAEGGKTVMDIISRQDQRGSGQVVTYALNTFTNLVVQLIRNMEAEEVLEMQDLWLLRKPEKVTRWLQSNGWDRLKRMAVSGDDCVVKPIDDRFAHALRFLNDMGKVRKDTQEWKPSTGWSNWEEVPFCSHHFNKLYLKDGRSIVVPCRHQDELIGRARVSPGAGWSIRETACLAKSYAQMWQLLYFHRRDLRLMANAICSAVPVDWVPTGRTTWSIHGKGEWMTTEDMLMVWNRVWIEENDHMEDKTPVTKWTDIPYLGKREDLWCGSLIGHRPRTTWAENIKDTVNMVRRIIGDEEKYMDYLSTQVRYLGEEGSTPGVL

SMILES	IC50 (ZIKV NS5) [µM]	IC50 (DENV2 NS5 [1]) [µM]	Km (DENV2 NS5 [2]) [µM]
Nc1ncnc2c([C@@H]3N[C@H](COP(=O)(O)OP(=O)(O)OP(=O)(O)O)[C@@H](O)[C@H]3O)c[nH]c12 [Gal-TP]	47 ± 5	42 ± 12	
Nc1ncnc2c1ncn2[C@@H]1O[C@H](COP(=O)(O)OP(=O)(O)OP(=O)(O)O)C[C@H]1O [3′-dATP, reference compound]	0.06 ± 0.02	0.48 ± 0.05	
Nc1ncnc2c1ncn2[C@@H]1O[C@H](COP(=O)(O)OP(=O)(O)OP(=O)(O)O)[C@@H](O)[C@H]1O [ATP]			430
